# Data published in article PMC7749516, “Safety and nonclinical and clinical pharmacokinetics of PC945, a novel inhaled triazole antifungal agent” (Pharmacology Research & Perspectives, 2020).
# Several values for one entry are separate records, joined by “and”; a condition that tells them apart may be missing. Equal entries are not always repeated.
# Experiments:
# [1] = Clinical pharmacokinetics, repeat inhaled dose in healthy subjects (Cohort 2); format: in vivo, human
# Source text: (§1) Part one consisted of a single dose escalation study (Cohort 1) and a repeat dose study (Cohort 2) of inhaled PC945 in healthy subjects. Part two comprised a single dose study of inhaled PC945 in subjects with mild asthma (Cohort 3). The doses selected were predicted to achieve target lung concentrations above the IC90/MIC90 for A. fumigatus (based on data from a range of in vitro and in vivo systems) throughout a 24‐hour period and with a suitable safety margin based on animal toxicology data.
# Nine healthy subjects (four males and five females; mean age: 33.2 years, mean weight: 66.5 kg, mean BMI: 23.53 kg/m^2) whose forced expiratory volume over 1 second (FEV1) and forced vital capacity (FVC) were ≥80% of predicted values with an FEV1/FVC ratio >0.7, received once daily doses of PC945 5 mg or placebo for 7 days (Cohort 2, PC945:placebo = 2:1).
# (§2) Serial blood samples were collected to determine plasma PC945 concentrations. For the single dose study in healthy subjects and in subjects with mild asthma, blood samples were collected predose and at 0.25, 0.5, 1, 2, 4, 6, 8, 24, 30, and 48 hours postend of inhalation and at the follow‐up visit. For the repeat dose study, blood samples were collected (a) predose and at 0.25, 0.5, 1, 2, 4, 6, 8, 10, 12, and 24 hours postend of inhalation on Days 1 and 7, and 30 and 48 hours on Day 7; (b) predose on Days 5 and 6; (c) at the follow‐up visit.
# Attainment of steady state was assessed by visual inspection of the predose plots during the 7‐day treatment period in human subjects.
# CYP3A4/5 = assay: CYP inhibition in pooled human liver microsomes; format: in vitro ADME
# [2] = system: CYP1A2, 2B6, 2C8, 2C9, 2C19, 2D6; assay: CYP inhibition in pooled human liver microsomes, other isoforms; format: in vitro ADME
# Description: PC945 and posaconazole (Sigma‐Aldrich, UK) were added to the pooled human liver microsomal samples (Pharmaron Rushden, UK) at concentrations of 0, 0.03, 0.1, 0.3, 1, 3, and 5 μmol/L. The mixtures were preincubated at 37°C for 0 or 30 minutes before the addition of selective CYP substrates. Microsomal reactions were terminated by adding 100 μL of cold (4°C) methanol containing appropriate internal standard. Aliquots (150 μL) of each sample were centrifuged and the supernatant was used for substrate analysis by ultra‐performance liquid chromatography with tandem mass spectrometry (UPLC‐MS/MS) on the day of incubations.
# Change in substrate concentration was measured to determine the extent of CYP‐isoform inhibition. The 30‐minute preincubations were performed to determine whether there was time‐dependent inhibition of any CYP isoform (CYP1A2, 2B6, 2C8, 2C9, 2C19, 2D6, and 3A4/5). Untreated control contained only solvent, dimethyl sulfoxide (≤0.5% [v/v]). Positive control contained a chemical inhibitor selective for each CYP enzyme in the […].
# [3] = Clinical pharmacokinetics, single inhaled dose in subjects with mild asthma (Cohort 3); format: in vivo, human; details: single inhaled 5 mg
# Source text: as §1
# In Cohort 3, nine subjects with mild asthma (six males and three females; mean age: 37.7 years, mean weight: 82.70 kg, mean BMI: 26.48 kg/m^2) received a single dose of PC945 5 mg or placebo (PC945:placebo = 2:1).
# as §2
# [4] = In vitro plasma protein binding; format: in vitro ADME; details: 0.1‐50 µmol/L
# Description: Plasma protein binding of PC945 was determined by […] in pooled plasma samples from human, dog, rat, and mouse. PC945 was tested at 0.1, 1, 5, 25, and 50 µmol/L in plasma for each species. PC945‐containing plasma samples were centrifuged at 238 859 g for 20 hours at 37°C. Supernatant was removed and diluted. The concentration of unbound PC945 was determined using LC‐MS/MS, from which the extent of protein binding was calculated.
# A. fumigatus infection = system: A. fumigatus infection; set-up: method as in PMID 31263150; details: in vitro human alveolus bilayer model; cited from earlier work
# [5] = Toxicokinetics/toxicity in dogs, daily 2-hour inhalation for 14 days (plasma); details: for Ro (accumulation ratio): AUC0‐24h (Day14)/AUC0‐24h (Day 1)
# Source text: Each dose was inhaled over a 2‐hour period once daily for 14 days.
# Lower limit of quantification of the assay was 10 pg/mL for clinical samples and 100 pg/mL for rat and dog plasma samples.
# [6] = Rat lung tissue concentration after 14 days of inhaled dosing; format: in vivo, rats (Han Wistar); details: for Lung concentration: lungs ~22 hours after final dose (Day 15)
# Description: Portions of rat lung tissue were homogenized in methanol:water (50:50; 15 mL for 1 g tissue). PC945 concentrations in tissue homogenates were analyzed using LC‐MS/MS. A control rat lung sample (B&K Universal Ltd, Hull, UK) was used as standards and quality control.
# [7] = healthy subjects, 5 mg once daily, Day 1, geometric mean (CV%)
# [8] = healthy subjects, 5 mg once daily, Day 7, geometric mean (CV%)
# [9] = substrate midazolam, 30‐minute preincubation
# [10] = female dogs, Day 14 of inhaled 1.7 mg/kg/day, mean
# [11] = female dogs, Day 14 of inhaled 5.3 mg/kg/day, mean
# [12] = female dogs, Day 14 of inhaled 18.1 mg/kg/day, mean
# [13] = female dogs, single inhaled dose 1.7 mg/kg, mean ± SD
# [14] = female dogs, single inhaled dose 5.3 mg/kg, mean ± SD
# [15] = female dogs, single inhaled dose 18.1 mg/kg, mean ± SD
# [16] = male dogs, Day 14 of inhaled 1.7 mg/kg/day, mean
# [17] = male dogs, Day 14 of inhaled 5.3 mg/kg/day, mean
# [18] = male dogs, Day 14 of inhaled 18.1 mg/kg/day, mean
# [19] = male dogs, single inhaled dose 1.7 mg/kg, mean ± SD
# [20] = male dogs, single inhaled dose 5.3 mg/kg, mean ± SD
# [21] = male dogs, single inhaled dose 18.1 mg/kg, mean ± SD
smiles,measurement,setting,value
Cc1cc(N2CCN(c3ccc(C(=O)Nc4ccc(F)cc4)cc3)CC2)ccc1OC[C@@H]1CO[C@@](Cn2cncn2)(c2ccc(F)cc2F)C1 [PC945],AUC0–24h,[1]; [7],6510 (60.0) pg*h/mL
same,C max,[1]; [7],462 (68.0) pg/mL
same,t max,"[1]; healthy subjects, 5 mg once daily, Day 1, median (range)",2 h and 2.10 (2.08‐4.08) h
same,time of C max postend of inhalation,"[1]; healthy subjects, 5 mg once daily, Day 7",45 min
same,C max,[1]; [8],951 (58.7) pg/mL
same,t ½,[1]; [8],132 (22.7) h
same,t max,"[1]; healthy subjects, 5 mg once daily, Day 7, median (range)",0.745 (0.240‐10.1) h
same,Cmax,"[1]; human, inhaled doses, read-out: C max values obtained with inhaled doses",< 2 nM
same,Predicted time to steady state,"[1]; once daily dosing, human",approximately 5 weeks
same,Shift in potency for CYP3A4/5 following preincubation,CYP3A4/5,fivefold
same,"IC50, CYP3A4/5",CYP3A4/5; microsomes,0.168 µg/mL
same,IC50,CYP3A4/5; [9],17 nM
same,"IC50, CYP3A4/5",CYP3A4/5; [9],0.0116 µg/mL
same,IC50,"CYP3A4/5; substrate midazolam, without preincubation, pooled human liver microsomes",85 nM
same,Time‐dependent effect on other CYP isoforms,[2]; 30‐minute preincubation,no time‐dependent effect
same,"Cytochrome P450 inhibitory interaction, isoforms other than CYP3A4/5",[2]; up to 5 μmol/L,only cytochrome P450 inhibitory interaction observed for PC945 was that on CYP3A4/5 substrates
same,AUC0–24h,[3],4.95 ng·h/mL
same,median t max,[3],4 h
same,C max,[3]; geometric mean,0.335 ng/mL
same,Mean percentage protein bound,[4]; dog plasma,91% and 91.1%
same,Mean percentage protein bound,[4]; human plasma,96.6%
same,Mean percentage protein bound,[4]; mouse plasma,96.2%
same,Mean percentage protein bound,[4]; rat plasma,97.8%
same,Effect on A. fumigatus infection,A. fumigatus infection,inhibit A. fumigatus infection
same,Margin over the clinical AUC following a 5 mg dose,"[5]; dog, highest dose tested",threefold
same,Time of C max after a single dose,"[5]; dogs, after the 2‐hour dosing period",immediately
same,Systemic toxicity,"[5]; dogs, highest dose tested",No systemic toxicity
same,Ro (accumulation ratio),"[5]; female dogs, 1.7 mg/kg/day",2.27
same,Ro (accumulation ratio),"[5]; female dogs, 5.3 mg/kg/day",1.88
same,Ro (accumulation ratio),"[5]; female dogs, 18.1 mg/kg/day",1.26
same,AUC0‐24h,[5]; [10],27.7 ng·h/mL
same,C max,[5]; [10],2.3 ng/mL
same,AUC0‐24h,[5]; [11],73.3 ng·h/mL
same,C max,[5]; [11],5.5 ng/mL
same,AUC0‐24h,[5]; [12],114 ng·h/mL
same,C max,[5]; [12],7.8 ng/mL
same,AUC0‐24h,[5]; [13],12.2 ± 2.9 ng·h/mL
same,C max,[5]; [13],1.5 ± 0.5 ng/mL
same,AUC0‐24h,[5]; [14],39.0 ± 2.7 ng·h/mL
same,C max,[5]; [14],4.3 ± 0.7 ng/mL
same,AUC0‐24h,[5]; [15],90.6 ± 6.7 ng·h/mL
same,C max,[5]; [15],10.2 ± 1.3 ng/mL
same,Ro (accumulation ratio),"[5]; male dogs, 1.7 mg/kg/day",2.06
same,Ro (accumulation ratio),"[5]; male dogs, 5.3 mg/kg/day",1.84
same,Ro (accumulation ratio),"[5]; male dogs, 18.1 mg/kg/day",2.29
same,AUC0‐24h,[5]; [16],35.5 ng·h/mL
same,C max,[5]; [16],2.8 ng/mL
same,AUC0‐24h,[5]; [17],70.9 ng·h/mL
same,C max,[5]; [17],5.6 ng/mL
same,AUC0‐24h,[5]; [18],203 ng·h/mL
same,C max,[5]; [18],13.5 ng/mL
same,AUC0‐24h,[5]; [19],17.2 ± 3.5 ng·h/mL
same,C max,[5]; [19],2.2 ± 0.3 ng/mL
same,AUC0‐24h,[5]; [20],38.5 ± 1.8 ng·h/mL
same,C max,[5]; [20],4.6 ± 0.4 ng/mL
same,AUC0‐24h,[5]; [21],88.5 ± 25.8 ng·h/mL
same,C max,[5]; [21],9.7 ± 2.4 ng/mL
same,Ratio lung tissue concentration (Day 15)/plasma C max (Day 14),"[6]; female rats, 2.0 mg/kg/day",2610
same,Lung concentration,"[6]; female rats, 2.0 mg/kg/day for 14 days",50 100 ng/mL
same,Ratio lung tissue concentration (Day 15)/plasma C max (Day 14),"[6]; female rats, 7.1 mg/kg/day",2740
same,Lung concentration,"[6]; female rats, 7.1 mg/kg/day for 14 days",138 000 ng/mL
same,Ratio lung tissue concentration (Day 15)/plasma C max (Day 14),"[6]; female rats, 16.6 mg/kg/day",2340
same,Lung concentration,"[6]; female rats, 16.6 mg/kg/day for 14 days",216 000 ng/mL
same,Mean lung:plasma ratio,[6]; male rats,~ 4300 fold
same,Ratio lung tissue concentration (Day 15)/plasma C max (Day 14),"[6]; male rats, 2.0 mg/kg/day",3450
same,Lung concentration,"[6]; male rats, 2.0 mg/kg/day for 14 days",42 400 ng/mL
same,Ratio lung tissue concentration (Day 15)/plasma C max (Day 14),"[6]; male rats, 7.1 mg/kg/day",5020
same,Lung concentration,"[6]; male rats, 7.1 mg/kg/day for 14 days",119 000 ng/mL
same,Ratio lung tissue concentration (Day 15)/plasma C max (Day 14),"[6]; male rats, 16.6 mg/kg/day",4280
same,Lung concentration,"[6]; male rats, 16.6 mg/kg/day for 14 days",329 000 ng/mL
same,Lung concentration relative to plasma,"[6]; rats, all dose levels, after 14‐day inhaled dosing",> 2000 fold
